Assay results as given in patent US7723358B2, “Aroyl-O-piperidine derivatives for the treatment of diabetes-related problems” (Merck Patent GmbH, priority 2004, dated 2010).

Legend:
[1] = tested on: apo B secretion in HepG2 cells; assay: Secretion of apo B in the HepG2 human cell line (sandwich-ELISA); assay type: cell-based; conditions: 24 hours incubation, culture supernatant, read-out: IC50, concentration that produces a 50% inhibition of apo B secretion in the HepG2 cells
Description: Analysis of the Secretion of apo B in the HepG2 Human Cell Line:
The activity of a compound according to the invention can be evaluated by measuring the inhibition of apo B secretion in HepG2 cells.
The HepG2 cells (ECACC—No. 85011430) are used as model in the study of the in vitro hepatic secretion of lipoproteins (Dixon J. and Ginsberg H., J., Lipid. Res., 1993, 34, 167-179).
The HepG2 cells are cultured in Dulbecco's modified Eagle's medium comprising 10% foetal calf serum (DMEM and FBS—Gibco) in 96-well plates under an atmosphere of 5% carbon dioxide for 24 hours (about 70% confluence).
The test compounds are dissolved at a concentration of 2 or 10 mM in dimethyl sulfoxide (DMSO). Serial dilutions (1:3.16) are made in DMSO and are added (1:200—Robot Multimek Beckman) to the growth medium (200 μL) and then finally incubated for 24 hours in the various wells containing the HepG2 cells.
The 24-hour culture supernatant diluted to 1:5 (phosphate-buffered saline:PBS comprising 1% bovine serum albumin) is tested according to a sandwich-ELISA method specific for human apo B.
The results are expressed in terms of IC50, i.e. the concentration that produces a 50% inhibition of apo B secretion in the HepG2 cells.

[2] = molecular target: T1, microsomal triglyceride transfer protein (MTP) (Mesocricetus auratus, UniProt P55158); assay: Inhibition of MTP activity: transfer of [3H]-triolein from donor liposomes to biotinylated LDL, SPA; assay type: biochemical; conditions: MTP from golden hamster liver; incubation 18-24 hours at 37° C.; read-out: IC50, concentration that allows a 50% inhibition of MTP
T1 construct: The supernatant comprising the soluble MTP is dialysed against Tris/HCl 150 mM; from tissue; host or cells: golden hamster liver microsomes, deoxycholate-solubilised supernatant, dialysed
T1 sequence (P55158 19-895): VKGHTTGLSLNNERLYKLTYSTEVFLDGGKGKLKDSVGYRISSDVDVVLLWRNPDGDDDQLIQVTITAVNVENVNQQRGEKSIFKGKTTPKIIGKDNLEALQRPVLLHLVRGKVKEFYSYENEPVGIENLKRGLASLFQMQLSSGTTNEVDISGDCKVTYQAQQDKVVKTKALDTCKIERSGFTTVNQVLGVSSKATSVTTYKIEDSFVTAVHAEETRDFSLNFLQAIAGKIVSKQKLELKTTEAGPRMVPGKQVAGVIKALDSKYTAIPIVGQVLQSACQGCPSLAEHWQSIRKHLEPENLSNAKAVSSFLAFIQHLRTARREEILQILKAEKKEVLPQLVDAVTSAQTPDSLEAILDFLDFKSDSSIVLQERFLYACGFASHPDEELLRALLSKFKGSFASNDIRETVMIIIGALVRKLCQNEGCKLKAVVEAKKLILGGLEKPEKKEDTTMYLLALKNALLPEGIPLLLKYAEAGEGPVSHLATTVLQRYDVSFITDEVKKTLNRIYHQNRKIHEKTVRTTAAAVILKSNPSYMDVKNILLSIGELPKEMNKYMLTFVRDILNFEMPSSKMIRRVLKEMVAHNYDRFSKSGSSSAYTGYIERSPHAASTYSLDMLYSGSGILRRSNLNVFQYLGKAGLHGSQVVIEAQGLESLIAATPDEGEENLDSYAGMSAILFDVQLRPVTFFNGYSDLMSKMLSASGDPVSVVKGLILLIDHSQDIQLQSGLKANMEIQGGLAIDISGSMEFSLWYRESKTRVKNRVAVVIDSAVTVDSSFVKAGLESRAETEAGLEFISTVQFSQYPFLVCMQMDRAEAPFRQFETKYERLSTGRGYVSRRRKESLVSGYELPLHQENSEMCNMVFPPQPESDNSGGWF
In short: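 Soluble MTP was extracted with deoxycholate from golden hamster liver microsomes. It was incubated with [3H]-triolein/phosphatidylcholine donor liposomes, biotinylated LDL acceptors and compound in DMSO in HEPES/NaCl/BSA buffer, pH 7.4, for 18-24 h at 37° C. Transfer was read with streptavidin SPA beads, and IC50 was taken as 50% inhibition of transfer.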

IC50 [1] [nM]	IC50 [2] [nM]	Structure (SMILES)
17	45.2	Cc1cccc(C(=O)Nc2cccc(OC3CCN(C(=O)OCc4ccccc4)CC3)c2)c1-c1ccc(OC(F)(F)F)cc1 [Example 7, phenylmethyl 4-[3-[[[6-methyl-4′-(trifluoro-methoxy)[1,1′-biphenyl]-2-yl]carbonyl]-amino]phenoxy]-1-piperidinecarboxylate]
67.1	101	COc1ccc(C(=O)N2CCC(Oc3cccc(NC(=O)c4cccc(C)c4-c4ccc(OC(F)(F)F)cc4)c3)CC2)cc1 [Example 98, N-[3-[[1-(4-methoxybenzoyl)-4-piperidin-yl]oxy]phenyl]-6-methyl-4′-(trifluorometh-oxy)[1,1′-biphenyl]-2-carboxamide]
10.6	49.2	Cc1cccc(C(=O)Nc2cccc(OC3CCN(S(C)(=O)=O)CC3)c2)c1-c1ccc(OC(F)(F)F)cc1 [Example 3, 6-methyl-N-[3-[[1-(methylsulfonyl)-4-piperidinyl]oxy]phenyl]-4′-(trifluoro-methoxy)[1,1′-biphenyl]-2-carboxamide]
7.4	171	CCCCOC(=O)CNC(=O)N1CCC(Oc2cccc(NC(=O)c3cccc(C)c3-c3ccc(OC(F)(F)F)cc3)c2)CC1 [Example 44, butyl N-[[4-[3-[[[6-methyl-4′-(trifluorometh-oxy)[1,1′-biphenyl]-2-yl]carbonyl]amino]-phenoxy]-1-piperidinyl]carbonyl]glycinate]
1.6	33.3	COCCOC(=O)N1CCC(Oc2cccc(NC(=O)c3cccc(C)c3-c3ccc(OC(F)(F)F)cc3)c2)CC1 [Example 73, 2-methoxyethyl 4-[3-[[[6-methyl-4′-(trifluoromethoxy)[1,1′-biphenyl]-2-yl]-carbonyl]amino]phenoxy]-1-piperidine-carboxylate]
72.8	166	Cc1cccc(C(=O)Nc2cccc(OC3CCN(C(=O)C(C)C)CC3)c2)c1-c1ccc(OC(F)(F)F)cc1 [Example 142, 6-methyl-N-[3-[[1-(2-methyl-1-oxopropyl)-4-piperidinyl]oxy]phenyl]-4′-(trifluorometh-oxy)[1,1′-biphenyl]-2-carboxamide]
	421	Cc1cccc(C(=O)Nc2cccc(OC3CCN(C(=O)OC(C)(C)C)CC3)c2)c1-c1ccc(OC(F)(F)F)cc1 [Example 1, 1,1-dimethylethyl 4-[3-[[[6-methyl-4′-(trifluoromethoxy)[1,1′-biphenyl]-2-yl]carbonyl]amino]phenoxy]-1-piperidine-carboxylate]
	161	C=CCNC(=O)N1CCC(Oc2cccc(NC(=O)c3cccc(C)c3-c3ccc(OC(F)(F)F)cc3)c2)CC1 [Example 32, 4-[3-[[[6-methyl-4′-(trifluoromethoxy)[1,1′-biphenyl]-2-yl]carbonyl]amino]phenoxy]-N-2-propenyl-1-piperidinecarboxamide]
	409	Cc1cccc(C(=O)Nc2cccc(OC3CCN(C(=O)c4ccco4)CC3)c2)c1-c1ccc(OC(F)(F)F)cc1 [Example 111, N-[3-[[1-(2-furanylcarbonyl)-4-piperidinyl]-oxy]phenyl]-6-methyl-4′-(trifluorometh-oxy)[1,1′-biphenyl]-2-carboxamide]

Continued, compound first:

Structure (SMILES)	IC50 [1] [nM]	IC50 [2] [nM]
CCCCS(=O)(=O)N1CCC(Oc2cccc(NC(=O)c3cccc(C)c3-c3ccc(OC(F)(F)F)cc3)c2)CC1 [Example 22]	12.7	45
Cc1cccc(C(=O)Nc2cccc(OC3CCN(S(=O)(=O)c4ccccc4)CC3)c2)c1-c1ccc(OC(F)(F)F)cc1 [Example 15, 6-methyl-N-[3-[[1-(phenylsulfonyl)-4-piperidinyl]oxy]phenyl]-4′-(trifluoro-methoxy)[1,1′-biphenyl]-2-carboxamide]	28.2	55.6
COc1ccc(NC(=O)N2CCC(Oc3cccc(NC(=O)c4cccc(C)c4-c4ccc(OC(F)(F)F)cc4)c3)CC2)cc1 [Example 26]	75.8	72.8
Cc1cccc(C(=O)Nc2cccc(OC3CCN(C(=O)Nc4ccc5c(c4)OCO5)CC3)c2)c1-c1ccc(OC(F)(F)F)cc1 [Example 56, N-1,3-benzodioxol-5-yl-4-[3-[[[6-methyl-4′-(trifluoromethoxy)[1,1′-biphenyl]-2-yl]-carbonyl]amino]phenoxy]-1-piperidine-carboxamide]	37.6	146
COC(=O)N1CCC(Oc2cccc(NC(=O)c3ccccc3-c3ccc(C(F)(F)F)cc3)c2)CC1 [Example 72, methyl 4-[3-[[[4′-(trifluoromethyl)[1,1′-biphenyl]-2-yl]carbonyl]amino]phenoxy]-1-piperidinecarboxylate]	4.6	42.2
COCCOC(=O)N1CCC(Oc2cccc(NC(=O)c3ccccc3-c3ccc(C(F)(F)F)cc3)c2)CC1 [Example 75, 2-methoxyethyl 4-[3-[[[4′-(trifluoromethyl)-[1,1′-biphenyl]-2-yl]carbonyl]amino]-phenoxy]-1 piperidinecarboxylate]	39.8	130
Cc1cccc(C(=O)Nc2cccc(OC3CCN(C(=O)Oc4ccc([N+](=O)[O-])cc4)CC3)c2)c1-c1ccc(OC(F)(F)F)cc1 [Example 9, 4-nitrophenyl 4-[3-[[[6-methyl-4′-(trifluoro-methoxy)[1,1′-biphenyl]-2-yl]carbonyl]-amino]phenoxy]-1-piperidinecarboxylate]	7.9	51.8
COc1ccc(CNC(=O)N2CCC(Oc3cccc(NC(=O)c4cccc(C)c4-c4ccc(OC(F)(F)F)cc4)c3)CC2)cc1 [Example 52, N-[(4-methoxyphenyl)methyl]-4-[3-[[[6-methyl-4′-(trifluoromethoxy)[1,1′-biphenyl]-2-yl]carbonyl]amino]phenoxy]-1-piperidinecarboxamide]	66.3	195
COC(=O)c1ccccc1NC(=O)N1CCC(Oc2cccc(NC(=O)c3cccc(C)c3-c3ccc(OC(F)(F)F)cc3)c2)CC1 [Example 36, methyl 2-[[[4-[3-[[[6-methyl-4′-(trifluoro-methoxy)[1,1′-biphenyl]-2-yl]carbonyl]-amino]phenoxy]-1-piperidinyl]carbonyl]-amino]benzoate]	67.8	51.3
Cc1cccc(C(=O)Nc2cccc(OC3CCN(S(=O)(=O)C(C)C)CC3)c2)c1-c1ccc(OC(F)(F)F)cc1 [Example 14, 6-methyl-N-[3-[[1-[(1-methyl-ethyl)sulfonyl]-4-piperidinyl]oxy]phenyl]-4′-(trifluoromethoxy)[1,1′-biphenyl]-2-carboxamide]	62.7	114
Cc1cccc(C(=O)Nc2cccc(OC3CCN(S(=O)(=O)Cc4ccccc4)CC3)c2)c1-c1ccc(OC(F)(F)F)cc1 [Example 16]	15.9	42.5
CCOC(=O)c1ccc(NC(=O)N2CCC(Oc3cccc(NC(=O)c4cccc(C)c4-c4ccc(OC(F)(F)F)cc4)c3)CC2)cc1 [Example 27, ethyl 4-[[[4-[3-[[[6-methyl-4′-(trifluorometh-oxy)[1,1′-biphenyl]-2-yl]carbonyl]amino]-phenoxy]-1-piperidinyl]carbonyl]amino]-benzoate]		295
Cc1cccc(C(=O)Nc2cccc(OC3CCN(Cc4ccncc4)CC3)c2)c1-c1ccc(OC(F)(F)F)cc1 [Example 66, 6-methyl-N-[3-[[1-(4-pyridinylmethyl)-4-piperidinyl]oxy]phenyl]-4′-(trifluorometh-oxy)[1,1′-biphenyl]-2-carboxamide]		189
